Assay results from ChEMBL document CHEMBL5370616, “Novel Nitric Oxide Donor-Azole Conjugation Strategy for Efficient Treatment of Cryptococcus neoformans Infections” (J Med Chem, 2023).
In brackets after ≈: the same amount, converted by molar mass. Activity calls are given as the source filed them. No cut-off for these calls is given here.

Key:
[1] = system: Cryptococcus neoformans; test: Antifungal activity against Cryptococcus neoformans H99 assessed as reduction in fungal growth incubated for 72 hrs by CLSI protocol based microplate reader analysis; assay type: functional
[2] = system: Candida albicans; test: Antifungal activity against Candida albicans SC5314 assessed as reduction in fungal growth incubated for 48 hrs by CLSI protocol based microplate reader analysis; assay type: functional
[3] = system: Candida albicans; test: Antifungal activity against Candida albicans 0304103 assessed as reduction in fungal growth incubated for 48 hrs by CLSI protocol based microplate reader analysis; assay type: functional
[4] = system: Nakaseomyces glabratus; test: Antifungal activity against Candida glabrata 10639 assessed as reduction in fungal growth incubated for 48 hrs by CLSI protocol based microplate reader analysis; assay type: functional
[5] = Drug metabolism in Cryptococcus neoformans H99 assessed as NO release by measuring green fluorescence at 8 ug/ml incubated for 12 hrs by DAF-FM DA staining based confocal laser scanning microscopy; assay type: ADME; conditions: dose 8 µg/ml
[6] = system: Cryptococcus neoformans; test: Fungicidal activity against Cryptococcus neoformans H99 assessed as cell death by measuring red fluorescence at 8 ug/ml incubated for 12 hrs by PI staining based confocal laser scanning microscopy; assay type: functional, organism-based; conditions: dose 8.0 µg/ml
[7] = system: Cryptococcus neoformans; test: Antifungal activity against Cryptococcus neoformans H99 assessed as reduction in urease production at 8 ug/ml by microplate analysis; assay type: functional, organism-based; conditions: dose 8.0 µg/ml
[8] = system: Cryptococcus neoformans; test: Disruption of preformed mature biofilm in Cryptococcus neoformans H99 assessed as removal of mature biofilm at 0.125 ug/ml incubated for 24 hrs by XTT reduction assay; assay type: functional; set-up: scale not given: the % may be the effect or the level left; conditions: dose 0.125 µg/ml
[9] = system: Cryptococcus neoformans; test: Antifungal activity against Cryptococcus neoformans H99 assessed as reduction in number of colonies at 0.125 to 1 ug/ml incubated for 72 hrs by agar disk diffusion assay; assay type: functional; set-up: scale not given: the % may be the effect or the level left; conditions: dose 0.125-1 µg/ml, at 0.125 to 1 µg/mL
[10] = system: Cryptococcus neoformans; test: Antifungal activity against Cryptococcus neoformans H99 assessed as reduction in fungal growth at 0.25 to 8 ug/ml incubated upto 72 hrs by microplate reader analysis; assay type: functional, organism-based; conditions: dose 0.25-8 µg/ml
[11] = system: Cryptococcus neoformans; test: Disruption of preformed mature biofilm in Cryptococcus neoformans H99 assessed as removal of mature biofilm at 32 ug/ml incubated for 24 hrs by XTT reduction assay; assay type: functional; set-up: scale not given: the % may be the effect or the level left; conditions: dose 32 µg/ml
[12] = system: Cryptococcus neoformans; test: Inhibition of CYP51 in Cryptococcus neoformans H99 assessed as increase in other unknown sterol level at 0.125 ug/ml incubated for 24 hrs by GC-MS analysis (Rvb= 12.49%); conditions: dose 0.125 µg/ml
[13] = system: Cryptococcus neoformans; test: Inhibition of CYP51 in Cryptococcus neoformans H99 assessed as increase in lanosterol level at 0.125 ug/ml incubated for 24 hrs by GC-MS analysis (Rvb= 6.24%); conditions: dose 0.125 µg/ml
[14] = system: Cryptococcus neoformans; test: Fungicidal activity against Cryptococcus neoformans H99 assessed as reduction in colony forming units at 8 ug/ml incubated upto 72 hrs by time-kill assay; assay type: functional; set-up: scale not given: the % may be the effect or the level left; conditions: dose 8 µg/ml
[15] = system: Cryptococcus neoformans; test: Inhibition of CYP51 in Cryptococcus neoformans H99 assessed as reduction in ergosterol level at 0.125 ug/ml incubated for 24 hrs by GC-MS analysis (Rvb= 58.33%); conditions: dose 0.125 µg/ml
[16] = system: Cryptococcus neoformans; test: Inhibition of biofilm formation in Cryptococcus neoformans H99 at 0.25 ug/ml incubated for 24 hrs by XTT reduction assay; assay type: functional
[17] = system: Cryptococcus neoformans; test: Disruption of preformed mature biofilm in Cryptococcus neoformans H99 assessed as removal of mature biofilm at 0.125 to 32 ug/ml incubated for 24 hrs in presence of 2-phenyl-4,4,5,5-tetramethylimidazoline-l-oxyl 3-oxide by XTT reduction assay; assay type: functional, organism-based; conditions: dose 0.125-32 µg/ml
[18] = system: Cryptococcus neoformans; test: Antifungal activity against Cryptococcus neoformans H99 assessed as reduction in melanin production at 32 ug/ml by microplate analysis; assay type: functional, organism-based; conditions: dose 32.0 µg/ml
[19] = system: Cryptococcus neoformans; test: Inhibition of CYP51 in Cryptococcus neoformans H99 assessed as decrease in unknown sterol level at 0.125 ug/ml incubated for 24 hrs by GC-MS analysis (Rvb= 22.95%); conditions: dose 0.125 µg/ml
[20] = system: Cryptococcus neoformans; test: Inhibition of biofilm formation in Cryptococcus neoformans H99 at 16 to 64 ug/ml incubated for 24 hrs by XTT reduction assay; assay type: functional, organism-based; conditions: dose 16-64 µg/ml
[21] = system: Cryptococcus neoformans; test: Fungicidal activity against Cryptococcus neoformans H99 assessed as reduction in colony forming units at 4 to 8 ug/ml incubated upto 72 hrs by time-kill assay; assay type: functional, organism-based; conditions: dose 4-8 µg/ml

SMILES	MIC80 [1] [µg/mL]	MIC80 [2] [µg/mL]	MIC80 [3] [µg/mL]	MIC80 [4] [µg/mL]	also measured
CN(Cc1ccc(OCCCOc2ccc(CC(=O)NCCOc3no[n+]([O-])c3S(=O)(=O)c3ccccc3)cc2)cc1)CC(O)(Cn1cncn1)c1ccc(F)cc1F (stereo not drawn)	1 (≈ 1.2 µM)	2 (≈ 2.4 µM)	> 64	1 (≈ 1.2 µM)	–
CN(Cc1ccc(OCCCOc2ccc(CC(=O)O[C@H]3CO[C@H]4[C@@H]3OC[C@H]4O[N+](=O)[O-])cc2)cc1)CC(O)(Cn1cncn1)c1ccc(F)cc1F (stereo partly drawn)	1 (≈ 1.35 µM)	4 (≈ 5.41 µM)	8 (≈ 10.8 µM)	0.5 (≈ 0.676 µM)	–
CN(CC(O)(Cn1cncn1)c1ccc(F)cc1F)c1cc(O/N=[N+](\[O-])N2CCC(O)CC2)c([N+](=O)[O-])cc1[N+](=O)[O-] (stereo not drawn)	64 (≈ 108 µM)	> 64	> 64	> 64	–
CN(CC(O)(Cn1cncn1)c1ccc(F)cc1F)c1cc(O/N=[N+](\[O-])N(C)CCO)c([N+](=O)[O-])cc1[N+](=O)[O-] (stereo not drawn)	64 (≈ 113 µM)	> 64	> 64	> 64	–
CN(Cc1ccc(OCCCOc2ccc(CC(=O)OCc3ccc(CO[N+](=O)[O-])cc3)cc2)cc1)CC(O)(Cn1cncn1)c1ccc(F)cc1F (stereo not drawn)	0.5 (≈ 0.683 µM)	1 (≈ 1.37 µM)	32 (≈ 43.7 µM)	1 (≈ 1.37 µM)	Drug metabolism [5]: Metabolite_Detected; Activity [6]: Active; Activity [7]: Active; Activity [8]: 25%; Activity [9]: 100%; Activity [10]: Dose-Dependent Effect; Activity [11]: 50%; inhibition [12]: 33.6%; inhibition [13]: 50.9%; Activity [14]: 100%; inhibition [15]: 10.7%; inhibition at 0.25 µg/mL [16]: > 50%; Activity [17]: inactive; Activity [18]: Active; inhibition [19]: 4.75%
CC1(C)N(O)C(c2ccccc2)=[N+]([O-])C1(C)C	–	–	–	–	inhibition [20]: inactive
CN(Cc1ccc(CNCCCOc2no[n+]([O-])c2S(=O)(=O)c2ccccc2)cc1)CC(O)(Cn1cncn1)c1ccc(F)cc1F (stereo not drawn)	2 (≈ 2.99 µM)	16 (≈ 23.9 µM)	32 (≈ 47.8 µM)	8 (≈ 11.9 µM)	–
CN(Cc1ccc(OCCCOc2ccc(CC(=O)OCCOCCOc3no[n+]([O-])c3S(=O)(=O)c3ccccc3)cc2)cc1)CC(O)(Cn1cncn1)c1ccc(F)cc1F (stereo not drawn)	1 (≈ 1.14 µM)	1 (≈ 1.14 µM)	> 64	1 (≈ 1.14 µM)	–
CN(Cc1ccc(OCCCOc2ccc(CC(=O)O)cc2)cc1)CC(O)(Cn1cncn1)c1ccc(F)cc1F (stereo not drawn)	2 (≈ 3.53 µM)	–	–	–	Activity [21]: inactive
CN(CC(O)(Cn1cncn1)c1ccc(F)cc1F)c1cc(O/N=[N+](\[O-])N2CCCC2)c([N+](=O)[O-])cc1[N+](=O)[O-] (stereo not drawn)	64 (≈ 114 µM)	> 64	> 64	> 64	–
CN1CCN(/[N+]([O-])=N/Oc2cc(N(C)CC(O)(Cn3cncn3)c3ccc(F)cc3F)c([N+](=O)[O-])cc2[N+](=O)[O-])CC1 (stereo not drawn)	64 (≈ 108 µM)	> 64	> 64	> 64	–
CN(CC(O)(Cn1cncn1)c1ccc(F)cc1F)c1cc(O/N=[N+](\[O-])N2CCC[C@@H]2CO)c([N+](=O)[O-])cc1[N+](=O)[O-] (stereo partly drawn)	64 (≈ 108 µM)	> 64	> 64	> 64	–
